From ChEMBL document CHEMBL1147428, “A new class of potent non-imidazole H(3) antagonists: 2-aminoethylbenzofurans” (Bioorg Med Chem Lett, 2004)

Assays:
Histamine H3 receptor [1] = target: Histamine H3 receptor (Homo sapiens, UniProt Q9Y5N1); assay: Binding potency was determined by displacement of [3H]N-alpha-methyl histamine from cloned human histamine H3 receptor expressed in C6 cells; assay type: cell-based
Histamine H3 receptor [2] = target: T1, Histamine H3 receptor (Rattus norvegicus, UniProt Q9QYN8); assay: Binding potency was determined by displacement of [3H]N-alpha-methyl histamine from histamine H3 receptor of rat cortical membranes; assay type: cell membranes, Membrane
T1 sequence (Q9QYN8 whole entry): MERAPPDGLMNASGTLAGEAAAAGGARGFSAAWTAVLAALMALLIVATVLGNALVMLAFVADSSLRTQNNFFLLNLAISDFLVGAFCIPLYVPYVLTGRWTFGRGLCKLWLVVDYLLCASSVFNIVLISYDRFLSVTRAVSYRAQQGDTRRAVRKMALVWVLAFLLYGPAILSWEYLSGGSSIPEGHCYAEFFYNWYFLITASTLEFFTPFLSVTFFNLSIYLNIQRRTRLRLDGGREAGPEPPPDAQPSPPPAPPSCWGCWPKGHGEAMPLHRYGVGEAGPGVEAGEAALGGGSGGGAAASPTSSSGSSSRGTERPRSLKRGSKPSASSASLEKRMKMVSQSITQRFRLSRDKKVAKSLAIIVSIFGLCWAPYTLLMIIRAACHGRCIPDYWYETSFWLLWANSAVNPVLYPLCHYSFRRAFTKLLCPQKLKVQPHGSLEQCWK

Histamine H3 receptor [3] = target: T1, Histamine H3 receptor; assay: Binding potency by displacement of [3H]N-alpha-methyl histamine from histamine H3 receptor of rat cortical membranes; assay type: cell membranes, Membrane
Histamine H3 receptor [4] = target: T1, Histamine H3 receptor; assay: pBinding potency by displacement of [3H]N-alpha-methyl histamine from histamine H3 receptor of rat cortical membranes; assay type: cell membranes, Membrane

Chain of Histamine H3 receptor (Homo sapiens, UniProt Q9Y5N1) (Q9Y5N1 whole entry): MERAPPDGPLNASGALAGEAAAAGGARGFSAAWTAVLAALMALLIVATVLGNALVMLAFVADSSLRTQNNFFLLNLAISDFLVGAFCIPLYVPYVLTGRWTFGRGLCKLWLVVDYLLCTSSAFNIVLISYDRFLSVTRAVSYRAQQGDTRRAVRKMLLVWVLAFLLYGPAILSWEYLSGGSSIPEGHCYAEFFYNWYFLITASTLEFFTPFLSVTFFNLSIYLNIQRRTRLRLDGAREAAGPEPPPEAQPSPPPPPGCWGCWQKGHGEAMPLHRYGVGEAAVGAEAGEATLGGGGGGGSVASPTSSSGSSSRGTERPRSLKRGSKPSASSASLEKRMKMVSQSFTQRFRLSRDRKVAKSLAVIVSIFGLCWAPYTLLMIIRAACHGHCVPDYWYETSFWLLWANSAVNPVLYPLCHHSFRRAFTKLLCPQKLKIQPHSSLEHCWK

Structure (SMILES) | Ki (Histamine H3 receptor [1]) | Ki (Histamine H3 receptor [2]) | Ki (Histamine H3 receptor [3]) | Ki (Histamine H3 receptor [4])
CC1CCN(CCc2cc3cc(-c4ccc(C(=O)N5CCOCC5)cc4)ccc3o2)CC1 | 17 nM |  |  | 
O=C(c1ccc(-c2ccc3oc(CCN4CCC[C@@H]4CO)cc3c2)nc1)N1CCOCC1 | 36 nM | 110 nM |  | 
O=C(c1ccc(-c2ccc3oc(CCN4CCCCC4)cc3c2)nc1)N1CCOCC1 | 12 nM | 49 nM |  | 
CC1CCN(CCc2cc3cc(-c4ccc(C(=O)N5CCOCC5)cn4)ccc3o2)CC1 | 87 nM | 151 nM |  | 
O=C(c1ccc(-c2ccc3oc(CCN4CCC(O)C4)cc3c2)nc1)N1CCOCC1 (stereo unspecified) | 12 nM |  |  | 
O=C(c1ccc(-c2ccc3oc(CCN4CCOCC4)cc3c2)cc1)N1CCOCC1 | 45 nM | 160 nM |  | 
C[C@@H]1CCCN1CCc1cc2cc(-c3ccc(C(=O)N4CCOCC4)cn3)ccc2o1 | 0.55 nM | 1.6 nM |  | 
O=C(c1ccc(-c2ccc3oc(CCN4CCCC4)cc3c2)nc1)N1CCOCC1 | 3.9 nM | 29 nM |  | 
O=C(c1ccc(-c2ccc3oc(CCN4CCOCC4)cc3c2)nc1)N1CCOCC1 |  | 260 nM |  | 
CC1CCCCN1CCc1cc2cc(-c3ccc(C(=O)N4CCOCC4)cc3)ccc2o1 (stereo unspecified) | 3 nM | 14 nM |  | 
O=C(c1ccc(-c2ccc3oc(CCN4CCCCCC4)cc3c2)cc1)N1CCOCC1 | 3.5 nM |  |  | 
C[C@@H]1CC[C@@H](C)N1CCc1cc2cc(-c3ccc(C(=O)N4CCOCC4)cc3)ccc2o1 | 2.2 nM |  |  | 
O=C(c1ccc(-c2ccc3oc(CCN4CCCCCC4)cc3c2)nc1)N1CCOCC1 | 16 nM | 33 nM |  | 
C[C@@H]1CCC[C@H](C)N1CCc1cc2cc(-c3ccc(C(=O)N4CCOCC4)cn3)ccc2o1 | 5.6 nM | 44.7 nM | 45 nM | 
O=C(c1ccc(-c2ccc3oc(CCN4CCC[C@H]4CO)cc3c2)cc1)N1CCOCC1 | 1.9 nM | 6.9 nM |  | 
C[C@@H]1CC[C@@H](C)N1CCc1cc2cc(-c3ccc(C(=O)N4CCOCC4)cn3)ccc2o1 | 5.9 nM | 26 nM |  | 
C[C@@H]1CCC[C@H](C)N1CCc1cc2cc(-c3ccc(C(=O)N4CCOCC4)cc3)ccc2o1 | 1.2 nM | 6.6 nM |  | 
O=C(c1ccc(-c2ccc3oc(CCN4CCCCC4)cc3c2)cc1)N1CCOCC1 | 2.3 nM | 6.2 nM |  | 

Second part, the compound after the results:

Ki (Histamine H3 receptor [1]) | Ki (Histamine H3 receptor [2]) | Ki (Histamine H3 receptor [3]) | Ki (Histamine H3 receptor [4]) | Structure (SMILES)
10 nM | 50 nM |  |  | N#Cc1ccc(-c2ccc3oc(CCN4CC=CCC4)cc3c2)cc1
320 nM | 1600 nM |  |  | N#Cc1ccc(-c2ccc3oc(CCN4CCC[C@@H]4CC(=O)O)cc3c2)cc1
18 nM |  |  |  | N#Cc1ccc(-c2ccc3oc(CCN4CCC[C@@H]4CO)cc3c2)cc1
16 nM | 63 nM |  |  | CN(C)[C@@H]1CCN(CCc2cc3cc(-c4ccc(C#N)cc4)ccc3o2)C1
15 nM | 16 nM |  |  | CC1CCN(CCc2cc3cc(-c4ccc(C#N)cc4)ccc3o2)CC1
5.8 nM |  |  |  | CC1CCCCN1CCc1cc2cc(-c3ccc(C#N)cc3)ccc2o1 (stereo unspecified)
2.2 nM |  |  |  | N#Cc1ccc(-c2ccc3oc(CCN4CCC[C@H]4CO)cc3c2)cc1
600 nM |  |  |  | N#Cc1ccc(-c2ccc3oc(CCn4ccnc4)cc3c2)cc1
49 nM | 140 nM |  |  | CN(C)[C@H]1CCN(CCc2cc3cc(-c4ccc(C#N)cc4)ccc3o2)C1
5.9 nM | 17 nM |  |  | O=C(c1ccc(-c2ccc3oc(CCN4CC=CCC4)cc3c2)cc1)N1CCOCC1
8.8 nM |  |  |  | N#Cc1ccc(-c2ccc3oc(CCN4CCCCC4)cc3c2)cc1
6.2 nM | 35 nM |  |  | O=C(c1ccc(-c2ccc3oc(CCN4CC[C@@H](O)C4)cc3c2)cc1)N1CCOCC1
7.8 nM |  |  |  | N#Cc1ccc(-c2ccc3oc(CCN4CCCCCC4)cc3c2)cc1
0.7 nM | 1.95 nM |  | 2 nM | C[C@@H]1CCCN1CCc1cc2cc(-c3ccc(C(=O)N4CCOCC4)cc3)ccc2o1
5.1 nM | 42 nM |  |  | C[C@@H]1CC[C@@H](C)N1CCc1cc2cc(-c3ccc(C#N)cc3)ccc2o1
8.8 nM | 95 nM |  |  | N#Cc1ccc(-c2ccc3oc(CCN4CCC(O)C4)cc3c2)cc1 (stereo unspecified)
2.4 nM | 22 nM |  |  | C[C@@H]1CCC[C@H](C)N1CCc1cc2cc(-c3ccc(C#N)cc3)ccc2o1
